The values below come from US20050009840A1 (SUGEN, INC., priority 2003, published 2005).

T1 sequence (P08581 974-1390 limits assumed): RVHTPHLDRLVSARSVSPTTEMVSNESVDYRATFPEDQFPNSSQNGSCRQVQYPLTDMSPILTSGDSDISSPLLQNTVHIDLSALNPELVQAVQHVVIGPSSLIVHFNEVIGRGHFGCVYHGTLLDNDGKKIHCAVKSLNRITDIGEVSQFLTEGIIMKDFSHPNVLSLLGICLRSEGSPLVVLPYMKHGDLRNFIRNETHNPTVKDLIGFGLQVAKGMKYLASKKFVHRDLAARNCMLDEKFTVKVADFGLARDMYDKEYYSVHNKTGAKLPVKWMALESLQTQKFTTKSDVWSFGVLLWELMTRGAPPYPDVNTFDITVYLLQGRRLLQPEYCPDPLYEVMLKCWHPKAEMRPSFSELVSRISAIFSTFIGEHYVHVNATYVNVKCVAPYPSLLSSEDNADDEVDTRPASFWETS

This experiment addresses T1, HGFR (Homo sapiens, UniProt P08581).
T1 construct: purchased Upstate 14-526
The experiment is described as follows: HGFR continuous-coupled spectrophotometric assay. Particulars: at 1 μM; Table 8, library procedure 43; read-out: % Inhibition (percent c-MET inhibition). It is filed as biochemical.
In the case of `CC1CN(C(=O)c2ccc(-c3cnc(N)c(OCc4nccn4Cc4ccccc4)c3)cc2)CC(C)N1` (centres unmarked), the inhibition (as a rule, the percentage by which the read-out fell short of the control) at 1 µM is 11%.

Regarding `CC1CN(C(=O)c2ccc(-c3cnc(N)c(OCc4ccc(C#N)cc4)c3)cc2)CC(C)N1` (centres unmarked), the inhibition at 1 µM is 13%.

As for `CC1CN(C(=O)c2ccc(-c3cnc(N)c(OCc4cc(F)ccc4F)c3)cc2)CC(C)N1` (centres unmarked), the inhibition at 1 µM amounted to 25%.

On to `CC1CN(C(=O)c2ccc(-c3cnc(N)c(OCc4ccc(F)c(F)c4)c3)cc2)CC(C)N1` (centres unmarked), for which the inhibition at 1 µM came out at 14%.

Turning to `CC1CN(C(=O)c2ccc(-c3cnc(N)c(OCc4ccc(OC(F)(F)F)cc4)c3)cc2)CC(C)N1` (centres unmarked), the inhibition at 1 µM is 21%.

Regarding `CC1CN(C(=O)c2ccc(-c3cnc(N)c(OCc4cc(F)cc(F)c4)c3)cc2)CC(C)N1` (centres unmarked), the inhibition at 1 µM was found to be 12%.

In the case of `CC1CN(C(=O)c2ccc(-c3cnc(N)c(OCc4cccc(Cl)c4Cl)c3)cc2)CC(C)N1` (centres unmarked), the inhibition at 1 µM is 40%.

As to `Cc1ccc(COc2cc(-c3ccc(C(=O)N4CC(C)NC(C)C4)cc3)cnc2N)cc1Cl` (centres unmarked), the inhibition at 1 µM turned out to be 27%.

Take `CC1CN(C(=O)c2ccc(-c3cnc(N)c(OCc4cc(Cl)ccc4Cl)c3)cc2)CC(C)N1` (centres unmarked): the inhibition at 1 µM was 32%.

Consider `CC1CN(C(=O)c2ccc(-c3cnc(N)c(OCc4nc(CS(=O)(=O)c5ccccn5)no4)c3)cc2)CC(C)N1` (centres unmarked), for which the inhibition at 1 µM was 16%.

Turning to `CC1CN(C(=O)c2ccc(-c3cnc(N)c(OCc4cc(-c5c(Cl)cccc5Cl)no4)c3)cc2)CC(C)N1` (centres unmarked), the inhibition at 1 µM was 16%.

For `CC1CN(C(=O)c2ccc(-c3cnc(N)c(OCc4cccc(OC(F)(F)F)c4)c3)cc2)CC(C)N1` (centres unmarked), the inhibition at 1 µM was found to be 17%.

Take `Cc1cc(COc2cc(-c3ccc(C(=O)N4CC(C)NC(C)C4)cc3)cnc2N)nc(-c2ccc(C(F)(F)F)cn2)n1` (centres unmarked): the inhibition at 1 µM amounted to 7%.

Turning to `CC1CN(C(=O)c2ccc(-c3cnc(N)c(OCc4cc(F)ccc4Br)c3)cc2)CC(C)N1` (centres unmarked), the inhibition at 1 µM worked out at 21%.

With `CC1CN(C(=O)c2ccc(-c3cnc(N)c(OCc4cccc(Cl)c4F)c3)cc2)CC(C)N1` (centres unmarked), the inhibition at 1 µM was determined as 28%.

In the case of `CC1CN(C(=O)c2ccc(-c3cnc(N)c(OCc4ccc(Cl)c(Cl)c4)c3)cc2)CC(C)N1` (centres unmarked), the inhibition at 1 µM amounted to 29%.

In the case of `CC1CN(C(=O)c2ccc(-c3cnc(N)c(OCc4cc(F)c(F)cc4F)c3)cc2)CC(C)N1` (centres unmarked), the inhibition at 1 µM amounted to 20%.

With `CC1CN(C(=O)c2ccc(-c3cnc(N)c(OCc4ccc(F)c(F)c4F)c3)cc2)CC(C)N1` (centres unmarked), the inhibition at 1 µM came to 25%.

For the molecule `CC1CN(C(=O)c2ccc(-c3cnc(N)c(OCc4ccc(C(F)(F)F)cc4C(F)(F)F)c3)cc2)CC(C)N1` (centres unmarked), the inhibition at 1 µM is 22%.

As for `CC1CN(C(=O)c2ccc(-c3cnc(N)c(OCc4c(F)ccc(F)c4F)c3)cc2)CC(C)N1` (centres unmarked), the inhibition at 1 µM is 41%.

On to `Cc1cccc(COc2cc(-c3ccc(C(=O)N4CC(C)NC(C)C4)cc3)cnc2N)c1F` (centres unmarked), for which the inhibition at 1 µM was determined as 28%.

`CC1CN(C(=O)c2ccc(-c3cnc(N)c(OCc4ccc(-c5csnn5)cc4)c3)cc2)CC(C)N1` (centres unmarked): the inhibition at 1 µM was 17%.

As to `CC1CN(C(=O)c2ccc(-c3cnc(N)c(OCc4cc(F)cc(C(F)(F)F)c4)c3)cc2)CC(C)N1` (centres unmarked), the inhibition at 1 µM turned out to be 19%.

Turning to `CC1CN(C(=O)c2ccc(-c3cnc(N)c(OCc4c(F)cccc4C(F)(F)F)c3)cc2)CC(C)N1` (centres unmarked), the inhibition at 1 µM amounted to 33%.

As to `CC1CN(C(=O)c2ccc(-c3cnc(N)c(OCc4cc(F)c(F)c(F)c4)c3)cc2)CC(C)N1` (centres unmarked), the inhibition at 1 µM amounted to 11%.

In the case of `CC1CN(C(=O)c2ccc(-c3cnc(N)c(OCc4ccccc4OC(F)F)c3)cc2)CC(C)N1` (centres unmarked), the inhibition at 1 µM came to 24%.

As to `CC1CN(C(=O)c2ccc(-c3cnc(N)c(OCc4ccc(C(F)(F)F)cc4F)c3)cc2)CC(C)N1` (centres unmarked), the inhibition at 1 µM stood at 24%.

With `CC1CN(C(=O)c2ccc(-c3cnc(N)c(OCc4ccc(Br)cc4F)c3)cc2)CC(C)N1` (centres unmarked), the inhibition at 1 µM is 29%.

For `CC1CN(C(=O)c2ccc(-c3cnc(N)c(OCc4cc(Br)cc(Br)c4)c3)cc2)CC(C)N1` (centres unmarked), the inhibition at 1 µM came to 42%.

As for `CC1CN(C(=O)c2ccc(-c3cnc(N)c(OCc4ccc(-c5ccccc5C#N)cc4)c3)cc2)CC(C)N1` (centres unmarked), the inhibition at 1 µM was 73%.

Consider `CC1CN(C(=O)c2ccc(-c3cnc(N)c(OCc4cccc(F)c4F)c3)cc2)CC(C)N1` (centres unmarked), for which the inhibition at 1 µM came to 19%.

Regarding `CC1CN(C(=O)c2ccc(-c3cnc(N)c(OCc4ncc(C(F)(F)F)cc4Cl)c3)cc2)CC(C)N1` (centres unmarked), the inhibition at 1 µM is 17%.

Take `Cc1noc(C)c1-c1nc(COc2cc(-c3ccc(C(=O)N4CC(C)NC(C)C4)cc3)cnc2N)no1` (centres unmarked): the inhibition at 1 µM worked out at 14%.

Take `COc1ccccc1-c1nc(COc2cc(-c3ccc(C(=O)N4CC(C)NC(C)C4)cc3)cnc2N)no1` (centres unmarked): the inhibition at 1 µM came to 9%.

`CC1CN(C(=O)c2ccc(-c3cnc(N)c(OCc4noc(-c5cccc(C(F)(F)F)c5)n4)c3)cc2)CC(C)N1` (centres unmarked): the inhibition at 1 µM worked out at 30%.

Consider `CC1CN(C(=O)c2ccc(-c3cnc(N)c(OCc4nsc(Cl)n4)c3)cc2)CC(C)N1` (centres unmarked), for which the inhibition at 1 µM turned out to be 6%.

Take `CC1CN(C(=O)c2ccc(-c3cnc(N)c(OCc4cc(Cl)cc(Cl)c4)c3)cc2)CC(C)N1` (centres unmarked): the inhibition at 1 µM came out at 26%.

`CC1CN(C(=O)c2ccc(-c3cnc(N)c(OCc4cccc(Oc5ccccc5)c4)c3)cc2)CC(C)N1` (centres unmarked): the inhibition at 1 µM turned out to be 32%.

`CC1CN(C(=O)c2ccc(-c3cnc(N)c(OCc4cc(C(F)(F)F)ccc4Cl)c3)cc2)CC(C)N1` (centres unmarked): the inhibition at 1 µM came to 25%.

Turning to `CC1CN(C(=O)c2ccc(-c3cnc(N)c(OCc4ccc(C(F)(F)F)c(F)c4)c3)cc2)CC(C)N1` (centres unmarked), the inhibition at 1 µM was 17%.

On to `CC1CN(C(=O)c2ccc(-c3cnc(N)c(OCc4cc(F)ccc4C(F)(F)F)c3)cc2)CC(C)N1` (centres unmarked), for which the inhibition at 1 µM stood at 17%.

For the molecule `CC1CN(C(=O)c2ccc(-c3cnc(N)c(OCc4ccccc4OC(F)(F)F)c3)cc2)CC(C)N1` (centres unmarked), the inhibition at 1 µM stood at 20%.

As for `CCOC(=O)C1CCN(C(=O)c2ccc(COc3cc(-c4ccc(C(=O)N5CC(C)NC(C)C5)cc4)cnc3N)cc2)CC1` (centres unmarked), the inhibition at 1 µM was found to be 12%.

As to `CCOC(=O)CCNC(=O)c1cccc(COc2cc(-c3ccc(C(=O)N4CC(C)NC(C)C4)cc3)cnc2N)c1` (centres unmarked), the inhibition at 1 µM was found to be 14%.

Turning to `CC1CN(C(=O)c2ccc(-c3cnc(N)c(OCc4ccc(S(=O)(=O)Nc5ccc(F)cc5)cc4)c3)cc2)CC(C)N1` (centres unmarked), the inhibition at 1 µM was 14%.

For `CC1CN(C(=O)c2ccc(-c3cnc(N)c(OCc4ccc(-c5ccnc(Br)n5)cc4)c3)cc2)CC(C)N1` (centres unmarked), the inhibition at 1 µM was 17%.

On to `CC1CN(C(=O)c2ccc(-c3cnc(N)c(OCc4cccc(-c5ccnc(Br)n5)c4)c3)cc2)CC(C)N1` (centres unmarked), for which the inhibition at 1 µM was 19%.

Regarding `CC1CN(C(=O)c2ccc(-c3cnc(N)c(OCc4ccc(S(N)(=O)=O)cc4)c3)cc2)CC(C)N1` (centres unmarked), the inhibition at 1 µM was 16%.

As to `CC1CN(C(=O)c2ccc(-c3cnc(N)c(OCc4ccc(C(=O)c5ccccc5)cc4)c3)cc2)CC(C)N1` (centres unmarked), the inhibition at 1 µM is 35%.

Turning to `Cc1cc(-c2onc(C)c2COc2cc(-c3ccc(C(=O)N4CC(C)NC(C)C4)cc3)cnc2N)no1` (centres unmarked), the inhibition at 1 µM amounted to 25%.

Regarding `CC1CN(C(=O)c2ccc(-c3cnc(N)c(OCc4ccc(S(=O)(=O)N5CCOCC5)cc4)c3)cc2)CC(C)N1` (centres unmarked), the inhibition at 1 µM turned out to be 13%.

As for `CC1CN(C(=O)c2ccc(-c3cnc(N)c(OCc4ccc(S(=O)(=O)c5ccc(F)cc5)cc4)c3)cc2)CC(C)N1` (centres unmarked), the inhibition at 1 µM is 13%.

In the case of `CC1CN(C(=O)c2ccc(-c3cnc(N)c(OCc4nc5ccccc5n4C)c3)cc2)CC(C)N1` (centres unmarked), the inhibition at 1 µM is 16%.

On to `CC1CN(C(=O)c2ccc(-c3cnc(N)c(OCc4nc(-c5ccccn5)no4)c3)cc2)CC(C)N1` (centres unmarked), for which the inhibition at 1 µM was found to be 15%.

On to `CC1CN(C(=O)c2ccc(-c3cnc(N)c(OCc4c(F)ccc(F)c4Cl)c3)cc2)CC(C)N1` (centres unmarked), for which the inhibition at 1 µM is 51%.

On to `Cc1ccc(COc2cc(-c3ccc(C(=O)N4CC(C)NC(C)C4)cc3)cnc2N)c(F)c1F` (centres unmarked), for which the inhibition at 1 µM amounted to 37%.

With `Cc1ccc(F)c(COc2cc(-c3ccc(C(=O)N4CC(C)NC(C)C4)cc3)cnc2N)c1F` (centres unmarked), the inhibition at 1 µM was 35%.

As to `Cc1cc(COc2cc(-c3ccc(C(=O)N4CC(C)NC(C)C4)cc3)cnc2N)ccc1F` (centres unmarked), the inhibition at 1 µM amounted to 16%.

Regarding `Cc1ccc(F)cc1COc1cc(-c2ccc(C(=O)N3CC(C)NC(C)C3)cc2)cnc1N` (centres unmarked), the inhibition at 1 µM amounted to 28%.

Consider `CC1CN(C(=O)c2ccc(-c3cnc(N)c(OCc4cccc(Br)c4)c3)cc2)CC(C)N1` (centres unmarked), for which the inhibition at 1 µM was 21%.

Consider `Cc1onc(-c2ccccc2)c1COc1cc(-c2ccc(C(=O)N3CC(C)NC(C)C3)cc2)cnc1N` (centres unmarked), for which the inhibition at 1 µM came out at 16%.

Turning to `CC1CN(C(=O)c2ccc(-c3cnc(N)c(OCc4cccc5cccnc45)c3)cc2)CC(C)N1` (centres unmarked), the inhibition at 1 µM was found to be 17%.

As to `CC1CN(C(=O)c2ccc(-c3cnc(N)c(OCc4c(-c5ccccc5)nn(C)c4Cl)c3)cc2)CC(C)N1` (centres unmarked), the inhibition at 1 µM is 18%.

As for `Cc1ccc(-c2nnc(COc3cc(-c4ccc(C(=O)N5CC(C)NC(C)C5)cc4)cnc3N)o2)cc1` (centres unmarked), the inhibition at 1 µM was 14%.

As to `CC1CN(C(=O)c2ccc(-c3cnc(N)c(OCc4cc(-c5ccccc5)no4)c3)cc2)CC(C)N1` (centres unmarked), the inhibition at 1 µM amounted to 16%.

As to `CC1CN(C(=O)c2ccc(-c3cnc(N)c(OCc4nccn4C)c3)cc2)CC(C)N1` (centres unmarked), the inhibition at 1 µM came out at 12%.

Take `Cc1nc(COc2cc(-c3ccc(C(=O)N4CC(C)NC(C)C4)cc3)cnc2N)n(C)n1` (centres unmarked): the inhibition at 1 µM amounted to 13%.

As for `CC1CN(C(=O)c2ccc(-c3cnc(N)c(OCc4nnnn4Cc4ccccc4)c3)cc2)CC(C)N1` (centres unmarked), the inhibition at 1 µM amounted to 15%.

For the molecule `CC1CN(C(=O)c2ccc(-c3cnc(N)c(OCc4nc5ccc(Cl)cc5[nH]4)c3)cc2)CC(C)N1` (centres unmarked), the inhibition at 1 µM was determined as 10%.

As for `CC1CN(C(=O)c2ccc(-c3cnc(N)c(OCc4cc5c(C(F)(F)F)nn(C)c5s4)c3)cc2)CC(C)N1` (centres unmarked), the inhibition at 1 µM was found to be 13%.

For the molecule `CC1CN(C(=O)c2ccc(-c3cnc(N)c(OCc4nc(-c5ccccc5)nn4C)c3)cc2)CC(C)N1` (centres unmarked), the inhibition at 1 µM was determined as 13%.

As to `CC(C)Cc1noc(COc2cc(-c3ccc(C(=O)N4CC(C)NC(C)C4)cc3)cnc2N)n1` (centres unmarked), the inhibition at 1 µM was determined as 14%.

Regarding `CC1CN(C(=O)c2ccc(-c3cnc(N)c(OCc4ccc(Cl)cc4Br)c3)cc2)CC(C)N1` (centres unmarked), the inhibition at 1 µM amounted to 29%.

As to `CCOC(=O)c1nc(COc2cc(-c3ccc(C(=O)N4CC(C)NC(C)C4)cc3)cnc2N)no1` (centres unmarked), the inhibition at 1 µM amounted to 13%.
